Measurements: PMC3956299 (Chembiochem : a European journal of chemical biology, 2009)

Columns and labels:
[1] = tested on: processing of influenza viral hemagglutinin in cultured MDCK cells; conditions: cited from earlier work
[2] = target: T1, Drosophila Golgi α-mannosidase II (dGMII) (Drosophila melanogaster, UniProt Q24451); format: biochemical
T1 sequence (Q24451 31-1108 limits assumed): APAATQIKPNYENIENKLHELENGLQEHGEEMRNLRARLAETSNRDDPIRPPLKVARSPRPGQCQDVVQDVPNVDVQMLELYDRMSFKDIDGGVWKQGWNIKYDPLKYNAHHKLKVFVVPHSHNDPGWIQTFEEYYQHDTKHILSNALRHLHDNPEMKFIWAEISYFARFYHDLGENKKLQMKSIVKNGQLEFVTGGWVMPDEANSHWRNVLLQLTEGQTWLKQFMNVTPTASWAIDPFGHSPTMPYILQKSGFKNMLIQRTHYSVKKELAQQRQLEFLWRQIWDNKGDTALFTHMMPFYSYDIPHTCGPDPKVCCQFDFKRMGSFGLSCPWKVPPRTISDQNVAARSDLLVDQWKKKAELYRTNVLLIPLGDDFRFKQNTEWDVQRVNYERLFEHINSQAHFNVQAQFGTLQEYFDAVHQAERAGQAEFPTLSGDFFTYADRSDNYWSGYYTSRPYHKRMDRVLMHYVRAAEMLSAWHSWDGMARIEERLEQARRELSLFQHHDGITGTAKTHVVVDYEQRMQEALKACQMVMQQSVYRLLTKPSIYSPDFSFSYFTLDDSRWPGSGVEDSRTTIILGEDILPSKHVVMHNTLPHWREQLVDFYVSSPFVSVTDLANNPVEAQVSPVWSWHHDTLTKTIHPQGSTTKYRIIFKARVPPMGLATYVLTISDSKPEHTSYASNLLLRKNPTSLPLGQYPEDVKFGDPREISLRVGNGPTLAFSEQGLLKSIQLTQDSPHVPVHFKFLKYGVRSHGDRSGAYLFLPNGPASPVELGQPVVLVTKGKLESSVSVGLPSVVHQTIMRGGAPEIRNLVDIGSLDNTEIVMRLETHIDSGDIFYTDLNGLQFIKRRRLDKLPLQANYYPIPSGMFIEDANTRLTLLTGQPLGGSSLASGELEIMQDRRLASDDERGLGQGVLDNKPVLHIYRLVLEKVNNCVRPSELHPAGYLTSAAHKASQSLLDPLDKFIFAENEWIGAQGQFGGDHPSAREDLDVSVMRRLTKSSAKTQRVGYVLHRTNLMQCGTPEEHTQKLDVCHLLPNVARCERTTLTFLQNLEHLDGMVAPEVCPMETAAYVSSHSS

## CS[C@@H]1[C@@H](N)[C@@H](O)[C@@H](O)[C@H]1O [Compound 1, Mannostatin A]
[1]
  effect on processing of influenza viral hemagglutinin: effectively blocked the processing of influenza viral hemagglutinin

## CO[C@@H]1[C@@H](N)[C@@H](O)[C@@H](O)[C@H]1O [Compound 5, (1R, 2R, 3R, 4S, 5R)-4-Amino-5-methoxycyclopentane-1,2,3-triol]
[2]; relative to 4 (4a)
  fold enhancement of potency on changing hydroxyl of 4 to methoxy: ~ 4 fold

## N[C@@H]1C[C@H](O)[C@H](O)[C@@H]1O [Compound 3, (1S, 2S, 3R, 4R)-4-aminocyclopentane-1,2,3-triol]
[2]
  inhibitory activity in words: very poor inhibitor
